Experiment [1] deals with Serratia marcescens. Put plainly: MIC and MBC, broth microdilution (Example 4, Table 3). The format is cell-based. To be noted: Serratia marcescens CDC-124 (SME-3).
In experiment [2] the test system is Morganella morganii. Described as above. To be noted: Morganella morganii CDC-57 (NDM-1). The format is cell-based.

≈ marks a conversion by molar mass, not a printed value.

Consider `CC(C)(O/N=C(\C(=O)N[C@@H]1C(=O)N2C(C(=O)[O-])=C(C[n+]3ccccc3)CS[C@H]12)c1csc(N)n1)C(=O)O` [CAZ, ceftazidime], for which, in experiment [1], the MBC (usually the smallest concentration meeting the test's criterion for killing) was determined as 64 µg/mL (≈ 117 µM); the MBC/MIC ratio was 256; the MIC (as a rule, the lowest concentration found to suppress growth) was found to be 0.25 µg/mL (≈ 0.457 µM). Besides, in experiment [2], the MBC was over 128 µg/mL and the MIC is over 128 µg/mL.

(Values after EP4635500A1, “THERAPEUTIC AGENT FOR BACTERIAL INFECTION” (Sumitomo Pharma Co., Ltd., priority 2022, dated 2024).)
